{"source": "patent US20200390902A1", "about": "“Antibody-Drug Conjugates Targeted at Human Aspartyl-(Asparaginyl)-B-Hydroxylase (HAAH)” (Panacea Pharmaceuticals, Inc., priority 2017, published 2020)", "key": {"H460 cells": {"tested_on": "H460 cells", "assay": "Cell morphology by phase contrast microscope, H460", "assay_type": "cell-based, human", "conditions": "H460, 32 nM, 72 hours", "method": "(§1) Both cell lines were cultured in HG-DMEM (ThermoFisher Scientific Catalog No. 11965-092) supplemented with 20 mM HEPES (4-(2-hydroxyethyl)-1-piperazineethanesulfonic acid), 4 mM L-glutamine, 1 mM sodium pyruvate, 1× non-essential amino acids, 50 μg/ml gentamicin and 10% fetal bovine serum (FBS). H460 and NHLF cells were seeded into 96-well plates at 5,000 cells per well, following a 2-day FBS deprivation, and released by culture in complete culture medium containing 10% FBS. […] By 72 hours post treatment, cell death was determined by observing cell morphology using a phase contrast microscope at 150×."}, "[1]": {"tested_on": "normal human lung fibroblasts (NHLF)", "assay": "Cell morphology by phase contrast microscope, NHLF", "assay_type": "cell-based", "conditions": "32 nM, 72 hours", "method": "as §1"}, "[2]": {"tested_on": "MIA-PaCa-2 ASPH-derived tumors", "assay": "Mouse model inoculated with pancreas cancer cells, MIA-PaCa-2 ASPH tumors", "assay_type": "in vivo", "procedure": "The efficacy and specificity of SNS622-MC-DM1 was first examined in the mouse model with inoculation of pancreas cancer cells. In this model. 5 to 6-week-old female Nod Scid Gamma (NSG) mice (The Jackson Laboratory, Bar Harbor, Me., U.S.A.) were subcutaneously inoculated with 5×10^5 MIA-PaCa-2 EV cells (MIA-PaCa-2 cells transduced with an empty lentivirus vector) in 100 μl buffer solution on one shoulder, and with 5×10^5 MIA-PaCa-2 ASPH cells (MIA-PaCa-2 cells expressing high levels of ASPH) in 100 μl buffer solution on the other shoulder Two weeks post-inoculation, SNS622-MC-DM1 or IgG1-MC-DM1 was injected at 5 mg/kg through a tail vein once a week for 4 weeks. A representation of the schedule used for the ADC treatments is show n in FIG. 13.\nThe volume of the tumors inoculated with the MIA-PaCa-2 ASPH cells was measured starting at day 1 of treatment with ADC, and the results are shown in FIG. 15B."}, "[3]": {"tested_on": "metastatic nodules in the lungs (PDAC PDx)", "assay": "PDx model of PDAC, lung metastasis", "assay_type": "in vivo, mouse", "conditions": "1.9 mg/kg, after 6 weeks of administration", "from_the_text": "Pancreatic ductular adenocarcinoma (PDAC) is a highly lethal malignancy with limited treatment options. HAAH is a cell surface protein that is highly expressed in […] of PDACs. The specificity of SNS622-MC-DM1 was next examined in the patient-derived xenograft (PDx) mouse model PDAC. The patient-derived xenograft (PDx) murine model was established by using surgically resected PDAC (from Rhode Island Hospital, Providence, R.I., U.S.A.). Five to six-week-old female Nod Scid Gamma (NSG) mice were employed. […] Body weight and tumor size were measured twice a week and tumor volume was calculated using the modified ellipsoid formula (0.5×length×width^2). To determine the effect of SNS622-MC-DM1 on lung metastasis, all lung tissues were immersed in Bouin's fixative solution (Sigma-Aldrich, St. Louis, Mo., U.S.A.; catalog No, HT10132) and metastatic nodules on the surface of the lungs were counted. […]\nThis phenotype was maintained in the PDx model of NSG mouse. […] In this context, dose and period of administration of PAN-622 or SNS622-MC-DM1 for treatment of NSG mice was reduced to 1.9 mg/kg and the development and growth of metastatic nodules in the lungs after the treatment was assessed After 6 weeks of administration, the number of macroscopic metastatic nodules on the lung surface was determined."}, "H460 lysate": {"biological_target": "T1, H460 lysate (Homo sapiens, UniProt Q12797)", "T1 construct": "A 96-well plate was coated with H460 lysate and dried at room temperature overnight; endogenous in cells; host or cells: H460 lysate (sonicated, supernatant)", "T1 sequence (Q12797 1-758)": "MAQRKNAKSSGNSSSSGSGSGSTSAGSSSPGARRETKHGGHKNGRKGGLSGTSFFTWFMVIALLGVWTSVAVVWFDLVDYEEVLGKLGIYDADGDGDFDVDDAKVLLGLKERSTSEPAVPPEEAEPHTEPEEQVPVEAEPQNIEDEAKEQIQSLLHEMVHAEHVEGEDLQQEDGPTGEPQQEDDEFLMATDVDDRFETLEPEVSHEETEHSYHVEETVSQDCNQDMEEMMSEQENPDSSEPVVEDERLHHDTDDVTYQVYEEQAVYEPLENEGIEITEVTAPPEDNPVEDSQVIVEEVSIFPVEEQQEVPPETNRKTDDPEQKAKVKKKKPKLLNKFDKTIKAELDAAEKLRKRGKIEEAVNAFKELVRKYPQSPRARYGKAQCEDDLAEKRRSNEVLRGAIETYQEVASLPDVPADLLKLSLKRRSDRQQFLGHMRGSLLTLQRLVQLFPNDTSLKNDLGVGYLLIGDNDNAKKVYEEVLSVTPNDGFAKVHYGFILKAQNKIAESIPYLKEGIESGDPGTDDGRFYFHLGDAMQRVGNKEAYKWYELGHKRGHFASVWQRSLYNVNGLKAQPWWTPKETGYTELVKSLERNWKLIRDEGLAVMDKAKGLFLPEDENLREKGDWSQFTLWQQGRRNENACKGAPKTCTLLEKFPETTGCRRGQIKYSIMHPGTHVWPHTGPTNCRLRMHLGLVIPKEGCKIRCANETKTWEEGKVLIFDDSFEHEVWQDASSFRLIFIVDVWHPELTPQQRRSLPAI", "assay": "Binding of naked antibodies and ADCs to H460 lysate", "procedure": "H460 cells were harvested, the cell density was adjusted to 2×10^6 cells/ml with PBS, and the resuspended cells sonicated on ice twice in 30 second pulses. After centrifugation at 300×g for 5 minutes the supernatant was collected and the protein concentration measured using a NANODROP spectrophotometer (ThermoFisher Scientific). A 96-well plate was coated with H460 lysate and dried at room temperature overnight. Following a 1-hour blockage with 1% non-fat dry milk in phosphate buffered saline (PBS), the plates were incubated for 45 minutes at 37° C. with each either 0.5 μg/ml IgG1λ (non-specific monoclonal antibody), IgG1λ-MC-DM1 (non-specific ADC), or SNS622-MC-DM1, or with 5 μg/ml SNS622. Following five PBS rinses to remove un-bound antibody. 1:100 goat anti-human IgG (8)-HRP was added and the plates incubated for 30 minutes at 37° C. Following five PBS rinses TMB substrate was added and, after incubation of the plates for 15 minutes at room temperature. Stop solution was added to terminate the reactions. The plates were read at 450 nm using a 96-well plate reader (ELx808, BioTek)."}}, "note": "Entries after “also recorded” stand apart in the source; their conditions may differ."}
{"substance": "SNS622-MC-DM1: SNS622 anti-HAAH monoclonal antibody conjugated to mertansine (DM1) by the non-cleavable linker maleimidocaproyl (MC)", "values": [{"measurement": "Cell density (morphology)", "setting": "H460 cells", "value": "reduction of cell density"}, {"measurement": "Cell density (morphology)", "setting": "[1]", "value": "no significant reduction of cell density"}, {"measurement": "Effect on MIA-PaCa-2 ASPH tumor volume / growth", "setting": "[2]; 5 mg/kg, up to 29 days", "value": "robustly suppressed; also recorded: strongly suppressed growth of MIA-PaCa-2 ASPH-derived tumors"}, {"measurement": "Reduction in tumor volume in comparison with IgG-MC-DM1 group", "setting": "[2]; day 15, 5 mg/kg tail vein once a week", "value": "approximately 55%"}, {"measurement": "Reduction in tumor volume in comparison with IgG-MC-DM1 group", "setting": "[2]; day 22, 5 mg/kg tail vein once a week", "value": "approximately 53%"}, {"measurement": "Reduction in tumor volume in comparison with IgG-MC-DM1 group", "setting": "[2]; day 29, 5 mg/kg tail vein once a week", "value": "approximately 53%"}, {"measurement": "Volume of MIA-PaCa-2 ASPH-derived tumors relative to MIA-PaCa-2 EV-derived tumors", "setting": "[2]; treatment day 29, same mouse, 5 mg/kg", "value": "approximately 1/7"}, {"measurement": "Mean number of nodules per animal", "setting": "[3]", "value": 3.25}, {"measurement": "Total number of metastatic nodules in group", "setting": "[3]", "value": "approximately 35"}, {"measurement": "Percent binding", "setting": "H460 lysate; percent of loading amount bound", "value": 107, "unit": "%"}, {"measurement": "Binding amount", "setting": "H460 lysate; sonicated H460 (2E^6 cells/ml), loading 5.0 or 0.5 μg/ml", "value": 5.35, "unit": "µg/mL"}]}
